Laboratory results taken from ChEMBL document CHEMBL3351688, “Studies on the anticonvulsant activity of 4-alkyl-1,2,4-triazole-3-thiones and their effect on GABAergic system” (Eur J Med Chem, 2014).

Columns and labels:
[1] = Protective index, ratio of TD50 in ip Swiss mouse dosed intraperitoneally 30 mins before test by Chimney test to anticonvulsant ED50 in Swiss mouse dosed intraperitoneally 30 mins before test by MES test; format: ADME, organism-based; conditions: in vivo, read-out: Ratio TD50/ED50
[2] = Toxicity in Swiss mouse assessed as effect on motor performance administered intraperitoneally 30 mins before test by Chimney test; format: organism-based; conditions: in vivo, ip
[3] = Toxicity in Swiss mouse assessed as effect on motor performance administered intraperitoneally 15 mins before test by Chimney test; format: organism-based; conditions: in vivo, ip
Mus musculus [4] = test: Anticonvulsant activity in Swiss mouse assessed as protection against seizures administered intraperitoneally 15 mins before test by maximal electroshock seizure test; format: functional; conditions: ip
[5] = Protective index, ratio of TD50 in ip Swiss mouse dosed intraperitoneally 120 mins before test by Chimney test to anticonvulsant ED50 in Swiss mouse dosed intraperitoneally 120 mins before test by MES test; format: ADME, organism-based; conditions: in vivo, read-out: Ratio TD50/ED50
Mus musculus [6] = test: Anticonvulsant activity in Swiss mouse assessed as protection against seizures administered intraperitoneally 30 mins before test by maximal electroshock seizure test; format: functional; conditions: ip
Mus musculus [7] = test: Anticonvulsant activity in Swiss mouse assessed as protection against seizures at 300 mg/kg, ip administered 30 mins before test by maximal electroshock seizure test; format: functional; conditions: route intraperitoneal
Mus musculus [8] = test: Anticonvulsant activity in Swiss mouse assessed as protection against seizures at 300 mg/kg, ip administered 60 mins before test by maximal electroshock seizure test; format: functional; conditions: route intraperitoneal
[9] = Protective index, ratio of TD50 in ip Swiss mouse dosed intraperitoneally 60 mins before test by Chimney test to anticonvulsant ED50 in Swiss mouse dosed intraperitoneally 60 mins before test by MES test; format: ADME, organism-based; conditions: in vivo, read-out: Ratio TD50/ED50
Mus musculus [10] = test: Anticonvulsant activity in Swiss mouse assessed as protection against seizures administered intraperitoneally 120 mins before test by maximal electroshock seizure test; format: functional; conditions: ip
Mus musculus [11] = test: Anticonvulsant activity in Swiss mouse assessed as protection against seizures at 300 mg/kg, ip administered 120 mins before test by maximal electroshock seizure test; format: functional; conditions: route intraperitoneal
[12] = Toxicity in Swiss mouse assessed as effect on motor performance administered intraperitoneally 120 mins before test by Chimney test; format: organism-based; conditions: in vivo, ip
Mus musculus [13] = test: Anticonvulsant activity in Swiss mouse assessed as protection against seizures administered intraperitoneally 60 mins before test by maximal electroshock seizure test; format: functional; conditions: ip
[14] = Toxicity in Swiss mouse assessed as effect on motor performance administered intraperitoneally 60 mins before test by Chimney test; format: organism-based; conditions: in vivo, ip
[15] = target: GABA-A receptor; anion channel (Homo sapiens) (UniProt P14867+P47870+P18507+P28472+P48169+Q99928+Q9UN88+P34903+O00591+O14764+Q8N1C3+P18505+P78334+P47869+P31644+Q16445); test: Displacement of [3H]muscimol form GABAA receptor in rat cerebral cortex assessed as specific radio-ligand binding level at 1 uM incubated for 10 mins by liquid scintillation counting method; format: tissue-based; conditions: target entry is the homologue from another species
[16] = Protective index, ratio of TD50 in ip Swiss mouse dosed intraperitoneally 15 mins before test by Chimney test to anticonvulsant ED50 in Swiss mouse dosed intraperitoneally 15 mins before test by MES test; format: ADME, organism-based; conditions: in vivo, read-out: Ratio TD50/ED50
Mus musculus [17] = test: Anticonvulsant activity in Swiss mouse assessed as protection against seizures at 300 mg/kg, ip administered 15 mins before test by maximal electroshock seizure test; format: functional; conditions: route intraperitoneal
Rattus norvegicus = species: Rattus norvegicus; test: Displacement of [3H]flunitrazepam form benzodiazepine receptor in rat cerebral cortex assessed as specific radio-ligand binding level at 1 uM incubated for 20 mins by liquid scintillation counting method; format: tissue-based

Row | SMILES | selectivity ratio at 0.5 h [1] | TD50 at 0.5 h [2] | TD50 at 0.25 h [3] | ED50 (Mus musculus [4]) | selectivity ratio at 2 h [5] | ED50 (Mus musculus [6]) | Activity (Mus musculus [7]) | Activity (Mus musculus [8]) | selectivity ratio at 1 h [9] | ED50 (Mus musculus [10]) | Activity (Mus musculus [11]) | TD50 at 2 h [12] | ED50 (Mus musculus [13]) | TD50 at 1 h [14] | Activity [15] | selectivity ratio at 0.25 h [16] | Activity (Mus musculus [17]) | Activity (Rattus norvegicus)
1 | CCCCCCCn1c(Cc2cccc(Cl)c2)n[nH]c1=S | 8.4 | 640 mg/kg | 507 mg/kg | 49.7 mg/kg | 4.9 | 76.3 mg/kg | 100% | 100% | 7.3 | 89.6 mg/kg | 100% | 442 mg/kg | 70.6 mg/kg | 519 mg/kg | 4% | 10.2 | 100% | 1%
2 | CCCCn1c(Cc2cccc(Cl)c2)n[nH]c1=S | 7.2 | 310 mg/kg | 326 mg/kg | 44.5 mg/kg | 3.2 | 43.2 mg/kg | 100% | 100% | 4.8 | 102 mg/kg | 100% | 325 mg/kg | 61.5 mg/kg | 298 mg/kg | 13% | 7.3 | 100% | 0%
3 | NCCCC(=O)O | – | – | – | – | – | – | – | – | – | – | – | – | – | – | 82% | – | – | –
4 | CCn1c(-c2cccc(Cl)c2Cl)n[nH]c1=S | – | – | – | – | – | – | 0% | 0% | – | – | 0% | – | – | – | 19% | – | 0% | 5%
5 | CCCCCn1c(-c2cccc(Cl)c2Cl)n[nH]c1=S | 1.3 | 354 mg/kg | 386 mg/kg | 329 mg/kg | – | 276 mg/kg | 62.5% | 62.5% | 1.2 | 348 mg/kg | 37.5% | 326 mg/kg | 285 mg/kg | 348 mg/kg | 0% | 1.2 | 37.5% | 18%
6 | CCn1c(Cc2cccc(Cl)c2)n[nH]c1=S | 5.2 | 285 mg/kg | 297 mg/kg | 51.1 mg/kg | 3.9 | 54.4 mg/kg | 100% | 100% | 4.1 | 88.3 mg/kg | 100% | 345 mg/kg | 69.9 mg/kg | 290 mg/kg | 0% | 5.8 | 100% | 15%
7 | CCCCCn1c(Cc2cccc(Cl)c2)n[nH]c1=S | 5.2 | 322 mg/kg | 371 mg/kg | 48.5 mg/kg | 4.1 | 62.5 mg/kg | 100% | 100% | 4.8 | 84.2 mg/kg | 100% | 348 mg/kg | 68.4 mg/kg | 329 mg/kg | 10% | 7.6 | 100% | 14%
8 | CCCCCCCn1c(-c2cccc(Cl)c2Cl)n[nH]c1=S | – | – | – | – | – | – | 25% | 25% | – | – | 12.5% | – | – | – | 3% | – | 25% | 8%
9 | CCCCCCCCCn1c(Cc2cccc(Cl)c2)n[nH]c1=S | 4.2 | 493 mg/kg | 476 mg/kg | 193 mg/kg | 2.3 | 117 mg/kg | 100% | 100% | 5.7 | 200 mg/kg | 82.5% | 465 mg/kg | 86.8 mg/kg | 493 mg/kg | 0% | 2.5 | 82.5% | 0%
10 | CCCCn1c(-c2cccc(Cl)c2Cl)n[nH]c1=S | – | – | – | – | – | – | 12.5% | 25% | – | – | 0% | – | – | – | 16% | – | 12.5% | 14%
11 | CN1C(=O)CN=C(c2ccccc2)c2cc(Cl)ccc21 | – | – | – | – | – | – | – | – | – | – | – | – | – | – | – | – | – | 83%
12 | CCCCCCCCCCCCn1c(Cc2cccc(Cl)c2)n[nH]c1=S | – | – | – | – | – | – | 0% | 0% | – | – | 0% | – | – | – | 0% | – | 0% | 12%
13 | CCCCCCCCn1c(Cc2cccc(Cl)c2)n[nH]c1=S | 2.9 | 486 mg/kg | 391 mg/kg | 162 mg/kg | 2 | 166 mg/kg | 100% | 100% | 2.8 | 224 mg/kg | 82.5% | 441 mg/kg | 153 mg/kg | 436 mg/kg | 8% | 2.4 | 100% | 0%
14 | CCCCCCn1c(-c2cccc(Cl)c2Cl)n[nH]c1=S | – | – | – | – | – | – | 12.5% | 25% | – | – | 12.5% | – | – | – | 2% | – | 12.5% | 10%
15 | CCCCCCn1c(Cc2cccc(Cl)c2)n[nH]c1=S | > 13.4 | > 1000 mg/kg | > 1000 mg/kg | 72.1 mg/kg | 5.6 | 74.5 mg/kg | 100% | 100% | 6.5 | 97.9 mg/kg | 100% | 548 mg/kg | 83.6 mg/kg | 541 mg/kg | 3% | > 13.9 | 100% | 1%
16 | CCCCCCCCCCn1c(Cc2cccc(Cl)c2)n[nH]c1=S | – | – | – | – | – | – | 0% | 0% | – | – | 0% | – | – | – | 15% | – | 0% | 12%
17 | Cc1ccc(-c2nc3ccc(C)cn3c2CC(=O)N(C)C)cc1 | – | – | – | – | – | – | – | – | – | – | – | – | – | – | – | – | – | 73%
